Experimental data from patent publication US20220372031A1, “NOVEL TRICYCLIC AROMATIC HETEROCYCLIC COMPOUND, PREPARATION METHOD THEREFOR, PHARMACEUTICAL COMPOSITION AND APPLICATION THEREOF” (SHANGHAI LONGWOOD BIOPHARMACEUTICALS CO., LTD., priority 2019, published 2022).

target: T1, PD-1/PD-L1 (Homo sapiens, UniProt Q9NZQ7); assay: PD-1/PD-L1 homogeneous time-resolved fluorescence (HTRF) binding assay; conditions: PD-1/PD-L1 HTRF binding, ~3 nM PD1, 10 nM PD-L1, 25° C., PBS pH 7.4
T1 construct: Recombinant human PD-L1 protein (19-238) with a His-tagged at the C-terminus; purchased AcroBiosystems PD1-H5229 (PD-L1); PD1-H5257 (PD-1)
T1 sequence (Q9NZQ7 19-238): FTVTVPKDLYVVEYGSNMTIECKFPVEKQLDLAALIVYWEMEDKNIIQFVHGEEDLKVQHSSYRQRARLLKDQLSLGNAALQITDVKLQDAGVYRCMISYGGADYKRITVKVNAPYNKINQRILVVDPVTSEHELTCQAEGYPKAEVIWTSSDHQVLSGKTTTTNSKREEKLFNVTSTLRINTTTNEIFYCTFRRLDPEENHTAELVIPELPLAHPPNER
Protocol: Assays were performed in standard black 384-well polystyrene plates and a final volume was 20 μL. The inhibitor was first serially diluted with DMSO and added to the wells of the plate, followed by the addition of other reaction components. The final concentration of DMSO in the assay was 1%. Assays were performed at 25° C. in PBS buffer (pH 7.4) containing 0.05% Tween-20 and 0.1% BSA. Recombinant human PD-L1 protein (19-238) with a His-tagged at the C-terminus was purchased from AcroBiosystems (PD1-H5229). Recombinant human PD-1 protein (25-167) with an Fc tag at the C-terminus was also purchased from AcroBiosystems (PD1-H5257). The PD-L1 and PD-1 proteins were diluted in assay buffer and then […] of the solution was extracted and added to the wells of the plate. Plates were centrifuged and proteins and inhibitors were preincubated for 40 minutes. After incubation, 0.1 μl of HTRF detection buffer containing europium […] labeled anti-human IgG (PerkinElmer-AD0212), Fc-specific and anti-His SureLight®-Allophycocyanin (APC, PerkinElmer-AD0059H) conjugated antibodies was added. After centrifugation, the plates were incubated at 25° C. for 60 minutes. Data was read in a PHERAstar FS plate reader (665 nm/620 nm ratio). Final concentrations in the assay were ˜3 nM PD1, 10 nM PD-L1, 1 nM europium anti-human IgG, and 20 nM anti-His-allophycocyanin. Activity data were fitted using GraphPad Prism 5_0 software to derive IC50 values for inhibitors.

| IC50 [nM] | Compound |
| --- | --- |
| ≤ 10 | N#Cc1c2c(cc3nc(-c4cccc(-c5cccc(Nc6nc(C(F)F)nc7cc(CN8CC[C@@H](O)C8)cnc67)c5Cl)c4Cl)oc13)[C@H](N1CC[C@@H](C(=O)NS(=O)(=O)C3CC3)C1)CC2 [Compound 087] |
| ≤ 10 | CC1(S(=O)(=O)NC(=O)[C@@H]2CCN([C@@H]3CCc4c3cc3nc(-c5cccc(-c6cccc(Nc7nc(C(F)F)nc8cc(CN9CC[C@@H](O)C9)cnc78)c6Cl)c5Cl)oc3c4C#N)C2)CC1 [Compound 088] |
| ≤ 10 | COc1nc(-c2cccc(-c3cccc(-c4nc5cc6c(c(C#N)c5o4)CC[C@H]6N4CC[C@@H](C(=O)O)C4)c3Cl)c2Cl)cnc1CN1CC[C@@H](O)C1 [Compound 162] |
| ≤ 10 | COc1nc(-c2cccc(-c3cccc(-c4nc5cc6c(c(C#N)c5o4)CC[C@H]6N4CC[C@@H](C(=O)O)C4)c3Cl)c2C)cnc1CN1CC[C@@H](O)C1 [Compound 175] |
| ≤ 10 | COc1nc(-c2cccc(-c3cccc(-c4nc5cc6c(c(C#N)c5o4)CC[C@H]6N4CC[C@@H](C(=O)O)C4)c3C)c2Cl)cnc1CN1CC[C@@H](O)C1 [Compound 182] |
| ≤ 10 | COc1nc(-c2cccc(-c3cccc(-c4nc5cc6c(c(C#N)c5o4)CC[C@H]6N4CC[C@@H](C(=O)NS(=O)(=O)C5CC5)C4)c3Cl)c2C)cnc1CN1CC[C@@H](O)C1 [Compound 231] |
| ≤ 10 | COc1nc(-c2cccc(-c3cccc(-c4nc5cc6c(c(C#N)c5o4)CC[C@H]6N4CC[C@@H](C(=O)NS(=O)(=O)C5CC5)C4)c3C)c2Cl)cnc1CN1CC[C@@H](O)C1 [Compound 232] |
| ≤ 10 | COc1nc(-c2cccc(-c3cccc(-c4nc5cc6c(c(C#N)c5o4)CC[C@H]6N4CC[C@@H](C(=O)NS(=O)(=O)C5(C)CC5)C4)c3Cl)c2C)cnc1CN1CC[C@@H](O)C1 [Compound 233] |
| ≤ 10 | COc1nc(-c2cccc(-c3cccc(-c4nc5cc6c(c(C#N)c5o4)CC[C@H]6N4CC[C@@H](C(=O)NS(=O)(=O)C5(C)CC5)C4)c3C)c2Cl)cnc1CN1CC[C@@H](O)C1 [Compound 234] |
| ≤ 10 | Cc1c(-c2nc3cc4c(c(C#N)c3o2)CC[C@H]4N2CC[C@@H](C(=O)O)C2)cccc1-c1cccc(Nc2nccc3cc(CN4CC[C@@H](O)C4)cnc23)c1Cl [Compound 235] |
| ≤ 10 | N#Cc1c2c(cc3nc(-c4cccc(-c5cccc(Nc6nccc7cc(CN8CC[C@@H](O)C8)cnc67)c5Cl)c4Cl)oc13)[C@H](N1CC[C@@H](C(=O)NS(=O)(=O)C3CC3)C1)CC2 [Compound 236] |
| ≤ 10 | Cc1c(Nc2nccc3cc(CN4CC[C@@H](O)C4)cnc23)cccc1-c1cccc(-c2nc3cc4c(c(C#N)c3o2)CC[C@H]4N2CC[C@@H](C(=O)NS(=O)(=O)C3CC3)C2)c1Cl [Compound 237] |
| ≤ 10 | Cc1c(-c2nc3cc4c(c(C#N)c3o2)CC[C@H]4N2CC[C@@H](C(=O)NS(=O)(=O)C3CC3)C2)cccc1-c1cccc(Nc2nccc3cc(CN4CC[C@@H](O)C4)cnc23)c1Cl [Compound 238] |
| ≤ 10 | Cc1c(Nc2nccc3cc(CN4CC[C@@H](O)C4)cnc23)cccc1-c1cccc(-c2nc3cc4c(c(C#N)c3o2)CC[C@H]4N2CC[C@@H](C(=O)NS(=O)(=O)C3(C)CC3)C2)c1C [Compound 239] |
| ≤ 10 | CC1(S(=O)(=O)NC(=O)[C@@H]2CCN([C@@H]3CCc4c3cc3nc(-c5cccc(-c6cccc(Nc7nccc8cc(CN9CC[C@@H](O)C9)cnc78)c6Cl)c5Cl)oc3c4C#N)C2)CC1 [Compound 240] |
| ≤ 10 | Cc1c(Nc2nccc3cc(CN4CC[C@@H](O)C4)cnc23)cccc1-c1cccc(-c2nc3cc4c(c(C#N)c3o2)CC[C@H]4N2CC[C@@H](C(=O)NS(=O)(=O)C3(C)CC3)C2)c1Cl [Compound 241] |
| ≤ 10 | Cc1c(-c2nc3cc4c(c(C#N)c3o2)CC[C@H]4N2CC[C@@H](C(=O)NS(=O)(=O)C3(C)CC3)C2)cccc1-c1cccc(Nc2nccc3cc(CN4CC[C@@H](O)C4)cnc23)c1Cl [Compound 242] |
| ≤ 10 | Cc1c(Nc2nccc3cc(CN4CC[C@@H](O)C4)cnc23)cccc1-c1cccc(-c2cc3cc4c(c(C#N)c3o2)CC[C@@H]4N2CC[C@@H](C(=O)O)C2)c1C [Compound 243] |
| ≤ 10 | Cc1c(Nc2nccc3cc(CN4CC[C@@H](O)C4)cnc23)cccc1-c1cccc(-c2cc3cc4c(c(C#N)c3o2)CC[C@H]4N2CC[C@@H](C(=O)O)C2)c1C [Compound 244] |
| ≤ 10 | N#Cc1c2c(cc3cc(-c4cccc(-c5cccc(Nc6nccc7cc(CN8CC[C@@H](O)C8)cnc67)c5Cl)c4Cl)oc13)[C@H](N1CC[C@@H](C(=O)O)C1)CC2 [Compound 245] |
| ≤ 10 | Cc1c(Nc2nccc3cc(CN4CC[C@@H](O)C4)cnc23)cccc1-c1cccc(-c2cc3cc4c(c(C#N)c3o2)CC[C@H]4N2CC[C@@H](C(=O)O)C2)c1Cl [Compound 246] |

| IC50 [nM] | Compound |
| --- | --- |
| ≤ 10 | Cc1c(-c2cc3cc4c(c(C#N)c3o2)CC[C@H]4N2CC[C@@H](C(=O)O)C2)cccc1-c1cccc(Nc2nccc3cc(CN4CC[C@@H](O)C4)cnc23)c1Cl [Compound 247] |
| ≤ 10 | Cc1c(Nc2nccc3cc(CN4CC[C@@H](O)C4)cnc23)cccc1-c1cccc(-c2cc3cc4c(c(C#N)c3o2)CC[C@H]4N2CC[C@@H](C(=O)NS(=O)(=O)C3CC3)C2)c1C [Compound 248] |
| ≤ 10 | N#Cc1c2c(cc3cc(-c4cccc(-c5cccc(Nc6nccc7cc(CN8CC[C@@H](O)C8)cnc67)c5Cl)c4Cl)oc13)[C@H](N1CC[C@@H](C(=O)NS(=O)(=O)C3CC3)C1)CC2 [Compound 249] |
| ≤ 10 | Cc1c(Nc2nccc3cc(CN4CC[C@@H](O)C4)cnc23)cccc1-c1cccc(-c2cc3cc4c(c(C#N)c3o2)CC[C@H]4N2CC[C@@H](C(=O)NS(=O)(=O)C3CC3)C2)c1Cl [Compound 250] |
| ≤ 10 | Cc1c(-c2cc3cc4c(c(C#N)c3o2)CC[C@H]4N2CC[C@@H](C(=O)NS(=O)(=O)C3CC3)C2)cccc1-c1cccc(Nc2nccc3cc(CN4CC[C@@H](O)C4)cnc23)c1Cl [Compound 251] |
| ≤ 10 | Cc1c(Nc2nccc3cc(CN4CC[C@@H](O)C4)cnc23)cccc1-c1cccc(-c2cc3cc4c(c(C#N)c3o2)CC[C@H]4N2CC[C@@H](C(=O)NS(=O)(=O)C3(C)CC3)C2)c1C [Compound 252] |
| ≤ 10 | CC1(S(=O)(=O)NC(=O)[C@@H]2CCN([C@@H]3CCc4c3cc3cc(-c5cccc(-c6cccc(Nc7nccc8cc(CN9CC[C@@H](O)C9)cnc78)c6Cl)c5Cl)oc3c4C#N)C2)CC1 [Compound 253] |
| ≤ 10 | COc1nc(-c2cccc(-c3cccc(-c4cc5cc6c(c(C#N)c5o4)CC[C@H]6N4CC[C@@H](C(=O)O)C4)c3C)c2C)cnc1CN1CC[C@@H](O)C1 [Compound 256] |
| ≤ 10 | COc1nc(-c2cccc(-c3cccc(-c4cc5cc6c(c(C#N)c5o4)CC[C@H]6N4CC[C@@H](C(=O)O)C4)c3Cl)c2Cl)cnc1CN1CC[C@@H](O)C1 [Compound 257] |
| ≤ 10 | COc1nc(-c2cccc(-c3cccc(-c4cc5cc6c(c(C#N)c5o4)CC[C@H]6N4CC[C@@H](C(=O)O)C4)c3Cl)c2C)cnc1CN1CC[C@@H](O)C1 [Compound 258] |
| ≤ 10 | COc1nc(-c2cccc(-c3cccc(-c4cc5cc6c(c(C#N)c5o4)CC[C@H]6N4CC[C@@H](C(=O)O)C4)c3C)c2Cl)cnc1CN1CC[C@@H](O)C1 [Compound 259] |
| ≤ 10 | COc1nc(-c2cccc(-c3cccc(-c4cc5cc6c(c(C#N)c5o4)CC[C@H]6N4CC[C@@H](C(=O)NS(=O)(=O)C5CC5)C4)c3C)c2C)cnc1CN1CC[C@@H](O)C1 [Compound 260] |
| ≤ 10 | COc1nc(-c2cccc(-c3cccc(-c4cc5cc6c(c(C#N)c5o4)CC[C@H]6N4CC[C@@H](C(=O)NS(=O)(=O)C5CC5)C4)c3Cl)c2Cl)cnc1CN1CC[C@@H](O)C1 [Compound 261] |
| ≤ 10 | COc1nc(-c2cccc(-c3cccc(-c4cc5cc6c(c(C#N)c5o4)CC[C@H]6N4CC[C@@H](C(=O)NS(=O)(=O)C5CC5)C4)c3Cl)c2C)cnc1CN1CC[C@@H](O)C1 [Compound 262] |
| ≤ 10 | COc1nc(-c2cccc(-c3cccc(-c4cc5cc6c(c(C#N)c5o4)CC[C@H]6N4CC[C@@H](C(=O)NS(=O)(=O)C5CC5)C4)c3C)c2Cl)cnc1CN1CC[C@@H](O)C1 [Compound 263] |
| ≤ 10 | COc1nc(-c2cccc(-c3cccc(-c4cc5cc6c(c(C#N)c5o4)CC[C@H]6N4CC[C@@H](C(=O)NS(=O)(=O)C5(C)CC5)C4)c3C)c2C)cnc1CN1CC[C@@H](O)C1 [Compound 264] |
| ≤ 10 | COc1nc(-c2cccc(-c3cccc(-c4cc5cc6c(c(C#N)c5o4)CC[C@H]6N4CC[C@@H](C(=O)NS(=O)(=O)C5(C)CC5)C4)c3Cl)c2Cl)cnc1CN1CC[C@@H](O)C1 [Compound 265] |
| ≤ 10 | COc1nc(-c2cccc(-c3cccc(-c4cc5cc6c(c(C#N)c5o4)CC[C@H]6N4CC[C@@H](C(=O)NS(=O)(=O)C5(C)CC5)C4)c3Cl)c2C)cnc1CN1CC[C@@H](O)C1 [Compound 266] |
| ≤ 10 | COc1nc(-c2cccc(-c3cccc(-c4cc5cc6c(c(C#N)c5o4)CC[C@H]6N4CC[C@@H](C(=O)NS(=O)(=O)C5(C)CC5)C4)c3C)c2Cl)cnc1CN1CC[C@@H](O)C1 [Compound 267] |
| ≤ 10 | COc1nc(-c2cccc(-c3cccc(-c4nc5cc6c(c(C#N)c5o4)CC[C@H]6N4CC[C@@H](C(=O)O)C4)c3Cl)c2C)cnc1CNC[C@@H]1CCC(=O)N1 [Compound 268] |
